Test results from publication PMC10761377 (2023).

Assays:
[1] = test system: FPAS (fipronil aptamer Short) (DNA, aptamer) AGTTTCTGGAGGACTGGGCGGGGTGACGGTTATG; test: electrochemical competitive replacement assay (chronoamperometry); conditions: free fipronil displaces 1 µM-loaded aptamer from immobilised fipronil; 1 h
[2] = test system: FPAP (fipronil aptamer with primers) (DNA, aptamer) TGTACCGTCTGAGCGATTCGTACAGTTTCTGGAGGACTGGGCGGGGTGACGGTTATGAGCCAGTCAGTGTTAAGGAGTGC; test: chronoamperometric binding titration on SPCE (streptavidin-HRP/TMB); conditions: NaCl 100 mM, MgCl2 2 mM; Tris-HCl 20 mM; 30 min; apparent; immobilised compound (amide-linked to poly-2-aminobenzoic acid electrode); logistic fit
[3] = test system: FPAS (fipronil aptamer Short) (DNA, aptamer) AGTTTCTGGAGGACTGGGCGGGGTGACGGTTATG; test: as above; conditions: NaCl 100 mM, MgCl2 2 mM; Tris-HCl 20 mM; 30 min; apparent; immobilised compound (amide-linked to poly-2-aminobenzoic acid electrode); logistic fit

binding [1]: yes | KD [2]: 94.3 ± 0.5 nM | KD [3]: 24.9 ± 1.7 nM
Structure (SMILES): N#Cc1nn(-c2c(Cl)cc(C(F)(F)F)cc2Cl)c(N)c1S(=O)C(F)(F)F (stereo not drawn)
